Experimental data taken from PubChem BioAssay (NCI).
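A five-concentration, 48-hour dose response in 96-well plates underlies each endpoint, interpolated linearly between surrounding concentrations. GI50: concentration for 50% inhibition of growth. TGI marks complete inhibition of growth.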

Tests used:
Experiment in all cases: NCI tumour cell line growth inhibition, 48 h
[1] = system: HCT-116 colon
[2] = system: TK-10 renal
[3] = system: SF-268 CNS
[4] = system: MOLT-4 leukemia
[5] = system: PC-3 prostate
[6] = system: BT-549 breast
[7] = system: RXF 393 renal
[8] = system: RPMI-8226 leukemia
[9] = system: UACC-62 melanoma
[10] = system: MALME-3M melanoma
[11] = system: ACHN renal
[12] = system: UO-31 renal
[13] = system: IGROV1 ovarian
[14] = system: SK-MEL-5 melanoma
[15] = system: MDA-MB-231 breast
[16] = system: HCT-15 colon
[17] = system: NCI-H522 lung
[18] = system: HCC-2998 colon
[19] = system: U251 CNS
[20] = system: SK-MEL-2 melanoma
[21] = system: HOP-92 NSCLC
[22] = system: NCI-H226 lung
[23] = system: NCI-H460 lung
[24] = system: CCRF-CEM leukemia
[25] = system: 786-0 renal
[26] = system: SNB-75 CNS
[27] = system: DU-145 prostate
[28] = system: HOP-62 NSCLC
[29] = system: LOX IMVI melanoma
[30] = system: OVCAR-3 ovarian
[31] = system: NCI-H23 lung
[32] = system: UACC-257 melanoma
[33] = system: SK-OV-3 ovarian
[34] = system: COLO 205 colon
[35] = system: HS 578T breast
[36] = system: SN12C renal
[37] = system: A549 NSCLC
[38] = system: OVCAR-8 ovarian
[39] = system: SW-620 colon
[40] = system: SR leukemia
[41] = system: T-47D breast
[42] = system: NCI/ADR-RES ovarian
[43] = system: SK-MEL-28 melanoma
[44] = system: MDA-MB-435
[45] = system: M14 melanoma
[46] = system: K-562 leukemia
[47] = system: CAKI-1 renal
[48] = system: SF-295 CNS
[49] = system: SNB-19 CNS
[50] = system: OVCAR-4 ovarian
[51] = system: MCF7 breast
[52] = system: HL-60(TB) leukemia
[53] = system: A498 renal
[54] = system: HT29 colon
[55] = system: OVCAR-5 ovarian
[56] = system: KM12 colon
[57] = system: EKVX NSCLC
[58] = system: SF-539 CNS

## CN1CCC(n2cnc(-c3ccc(F)cc3)c2-c2ccnc(NCCO)n2)CC1
[1]
  GI50: 14.5 µM
  TGI: > 25 µM
[2]
  GI50: > 20.3 µM
  TGI: > 25 µM
[3]
  GI50: 18.2 µM
  TGI: > 25 µM
[4]
  GI50: > 25 µM
  TGI: > 25 µM
[5]
  GI50: > 25 µM
  TGI: > 25 µM
[6]
  GI50: > 25 µM
  TGI: > 25 µM
[7]
  GI50: > 25 µM
  TGI: > 25 µM
[8]
  GI50: > 25 µM
  TGI: > 25 µM
[9]
  GI50: > 21.6 µM
  TGI: > 25 µM
[10]
  GI50: 23.8 µM
  TGI: > 25 µM
[11]
  GI50: 12.1 µM
  TGI: > 25 µM
[12]
  GI50: 13.6 µM
  TGI: > 25 µM
[13]
  GI50: 18.1 µM
  TGI: > 25 µM
[14]
  GI50: 17.2 µM
  TGI: > 25 µM
[15]
  GI50: > 25 µM
  TGI: > 25 µM
[16]
  GI50: 20.7 µM
  TGI: > 25 µM
[17]
  GI50: > 17.7 µM
  TGI: > 25 µM
[18]
  GI50: > 25 µM
  TGI: > 25 µM
[19]
  GI50: 12.7 µM
  TGI: > 25 µM
[20]
  GI50: > 25 µM
  TGI: > 25 µM
[21]
  GI50: 5.43 µM
  TGI: > 25 µM
[22]
  GI50: > 25 µM
  TGI: > 25 µM
[23]
  GI50: 9.54 µM
  TGI: > 25 µM
[24]
  GI50: > 25 µM
  TGI: > 25 µM
[25]
  GI50: > 23.9 µM
  TGI: > 25 µM
[26]
  GI50: 12.3 µM
  TGI: > 25 µM
[27]
  GI50: 22.3 µM
  TGI: > 25 µM
[28]
  GI50: > 25 µM
  TGI: > 25 µM
[29]
  GI50: 13.8 µM
  TGI: > 25 µM
[30]
  GI50: > 23.4 µM
  TGI: > 25 µM
[31]
  GI50: > 25 µM
  TGI: > 25 µM
[32]
  GI50: > 25 µM
  TGI: > 25 µM
[33]
  GI50: > 25 µM
  TGI: > 25 µM
[34]
  GI50: 8.86 µM
  TGI: > 25 µM
[35]
  GI50: > 25 µM
  TGI: > 25 µM
[36]
  GI50: > 18.9 µM
  TGI: > 25 µM
[37]
  GI50: 11.9 µM
  TGI: > 25 µM
[38]
  GI50: 18.4 µM
  TGI: > 25 µM
[39]
  GI50: 15.8 µM
  TGI: > 25 µM
[40]
  GI50: 23.7 µM
  TGI: > 25 µM
[41]
  GI50: > 25 µM
  TGI: > 25 µM
[42]
  GI50: > 25 µM
  TGI: > 25 µM
[43]
  GI50: > 25 µM
  TGI: > 25 µM
[44]
  GI50: 11.5 µM
  TGI: > 25 µM
[45]
  GI50: > 25 µM
  TGI: > 25 µM
[46]
  GI50: 18.3 µM
  TGI: > 25 µM
[47]
  GI50: > 17.9 µM
  TGI: > 25 µM
[48]
  GI50: > 19.8 µM
  TGI: > 25 µM
[49]
  GI50: > 25 µM
  TGI: > 25 µM
[50]
  GI50: > 20.9 µM
  TGI: > 25 µM
[51]
  GI50: 3.78 µM
  TGI: > 25 µM
[52]
  GI50: > 25 µM
  TGI: > 25 µM
[53]
  GI50: 14.8 µM
  TGI: > 25 µM
[54]
  GI50: 10 µM
  TGI: > 25 µM
[55]
  GI50: > 25 µM
  TGI: > 25 µM
[56]
  GI50: 16.7 µM
  TGI: > 25 µM
[57]
  GI50: > 23.2 µM
  TGI: > 25 µM
[58]
  GI50: > 25 µM
  TGI: > 25 µM

## COc1ccc2c(c1)cn1c3ccc(O)cc3nc(N)c21
[1]
  GI50: 0.0341 µM
  TGI: 1.86 µM
[2]
  GI50: 1.13 µM
  TGI: 5.6 µM
[3]
  GI50: 0.238 µM
  TGI: 7.24 µM
[4]
  GI50: 1.18 µM
  TGI: 21.7 µM
[5]
  GI50: 0.761 µM
  TGI: 13.4 µM
[6]
  GI50: 4.72 µM
  TGI: 22.7 µM
[7]
  GI50: 0.0852 µM
  TGI: 2.66 µM
[8]
  GI50: 1.75 µM
  TGI: 12.8 µM
[9]
  GI50: 0.09 µM
  TGI: 20 µM
[10]
  GI50: 0.0714 µM
  TGI: 23.2 µM
[11]
  GI50: 0.109 µM
  TGI: 5.18 µM
[12]
  GI50: 0.148 µM
  TGI: 10.3 µM
[13]
  GI50: 0.176 µM
  TGI: 6.59 µM
[14]
  GI50: 0.0762 µM
  TGI: 3.95 µM
[15]
  GI50: 0.957 µM
  TGI: 5.56 µM
[16]
  GI50: 0.0585 µM
  TGI: 5.99 µM
[17]
  GI50: 0.111 µM
  TGI: 2.22 µM
[18]
  GI50: 0.626 µM
  TGI: 5.24 µM
[19]
  GI50: 0.0547 µM
  TGI: 4.11 µM
[20]
  GI50: 0.27 µM
  TGI: 5.14 µM
[21]
  GI50: 1.06 µM
  TGI: > 37 µM
[22]
  GI50: 0.597 µM
  TGI: 23.2 µM
[23]
  GI50: 0.131 µM
  TGI: 14.7 µM
[24]
  GI50: 0.163 µM
  TGI: > 50.9 µM
[25]
  GI50: 0.947 µM
  TGI: 6.86 µM
[26]
  GI50: 0.112 µM
  TGI: 2.81 µM
[27]
  GI50: 0.24 µM
  TGI: 5.43 µM
[28]
  GI50: 0.205 µM
  TGI: 8.18 µM
[29]
  GI50: 0.0712 µM
  TGI: 1.94 µM
[30]
  GI50: 0.0757 µM
  TGI: 2.39 µM
[31]
  GI50: 0.394 µM
  TGI: 17.7 µM
[32]
  GI50: 0.0793 µM
  TGI: 1 µM
[33]
  GI50: 0.324 µM
  TGI: 6.48 µM
[34]
  GI50: 0.885 µM
  TGI: 4.68 µM
[35]
  GI50: 1.48 µM
  TGI: 33.4 µM
[36]
  GI50: 0.342 µM
  TGI: 19.1 µM
[37]
  GI50: 0.174 µM
  TGI: 4.22 µM
[38]
  GI50: 0.375 µM
  TGI: 4.92 µM
[39]
  GI50: 0.0388 µM
  TGI: 5.82 µM
[40]
  GI50: 0.0743 µM
  TGI: 2.76 µM
[41]
  GI50: 2.34 µM
  TGI: 10.4 µM
[42]
  GI50: 0.2 µM
  TGI: 3.33 µM
[43]
  GI50: 0.126 µM
  TGI: 5.31 µM
[44]
  GI50: 0.0217 µM
  TGI: 0.0749 µM
[45]
  GI50: 0.0798 µM
  TGI: 4.98 µM
[46]
  GI50: 0.0735 µM
  TGI: 2.46 µM
[47]
  GI50: 0.246 µM
  TGI: 4.39 µM
[48]
  GI50: 0.203 µM
  TGI: 4 µM
[49]
  GI50: 0.357 µM
  TGI: 25 µM
[50]
  GI50: 1.57 µM
  TGI: 15.7 µM
[51]
  GI50: 0.615 µM
  TGI: 4.99 µM
[52]
  GI50: 0.765 µM
  TGI: 31.3 µM
[53]
  GI50: 0.498 µM
  TGI: 17.4 µM
[54]
  GI50: 1.45 µM
  TGI: 4.31 µM
[55]
  GI50: 1.57 µM
  TGI: 18.3 µM
[56]
  GI50: 0.615 µM
  TGI: 5.7 µM
[57]
  GI50: 1.51 µM
  TGI: 18.5 µM
[58]
  GI50: 0.237 µM
  TGI: 2.72 µM
